US11053204B2, “Pyrimidinyloxy benzene derivatives as herbicides” (FMC Corporation, priority 2015, dated 2021)

What was measured:
Experiment in all cases: Test C preemergence, plant response rating
Format in all cases: in vivo
[1] = test system: barnyardgrass (Echinochloa crus-galli); conditions: Preemergence
[2] = test system: oat, wild (wild oat Avena fatua)
[3] = test system: nightshade (eastern black nightshade, Solanum ptycanthum)
[4] = test system: johnsongrass (Sorghum halepense)
[5] = test system: windgrass (Apera spica-venti)
[6] = test system: wild poinsettia (Euphorbia heterophylla)
[7] = test system: galium (catchweed bedstraw, Galium aparine)

In the case of `C=C(Br)COC(=O)c1c(Br)cccc1Oc1ncc(Cl)cn1` [Compound 61], the “Plant response rating, Barnyardgrass” value ([1]; 62 g ai/ha, scale of 0 to 100) is reported as 50, the “Plant response rating, Barnyardgrass” value ([1]; 125 g ai/ha, scale of 0 to 100) is reported as 65 and the “Plant response rating, Barnyardgrass” value ([1]; 16 g ai/ha, scale 0 to 100) is reported as 0. For the same compound, the “Plant response rating, Barnyardgrass” value ([1]; 31 g ai/ha, scale 0 to 100) was 0, the “Plant response rating, Oat, Wild” value ([2]; 16 g ai/ha, scale 0 to 100) was 0 and the “Plant response rating, Oat, Wild” value ([2]; 31 g ai/ha, scale 0 to 100) was 0. The “Plant response rating, Oat, Wild” value ([2]; 62 g ai/ha, scale 0 to 100) was 5, the “Plant response rating, Oat, Wild” value ([2]; 125 g ai/ha, scale of 0 to 100) was 5 and the “Plant response rating, Nightshade” value ([3]; 16 g ai/ha, scale 0 to 100) was 60. For the same compound, the “Plant response rating, Nightshade” value ([3]; 31 g ai/ha, scale 0 to 100) was 60, the “Plant response rating, Nightshade” value ([3]; 62 g ai/ha, scale 0 to 100) was 50 and the “Plant response rating, Nightshade” value ([3]; 125 g ai/ha, scale of 0 to 100) was 75. The “Plant response rating, Johnsongrass” value ([4]; 16 g ai/ha, scale 0 to 100) was 0, the “Plant response rating, Johnsongrass” value ([4]; 31 g ai/ha, scale 0 to 100) was 0 and the “Plant response rating, Johnsongrass” value ([4]; 62 g ai/ha, scale 0 to 100) was 0. The “Plant response rating, Johnsongrass” value ([4]; 125 g ai/ha, scale of 0 to 100) was 20, the “Plant response rating, Windgrass” value ([5]; 16 g ai/ha, scale 0 to 100) was 0 and the “Plant response rating, Windgrass” value ([5]; 31 g ai/ha, scale 0 to 100) was 5. For the same compound, the “Plant response rating, Windgrass” value ([5]; 62 g ai/ha, scale 0 to 100) was 40, the “Plant response rating, Windgrass” value ([5]; 125 g ai/ha, scale of 0 to 100) was 70 and the “Plant response rating, Poinsettia, Wild” value ([6]; 16 g ai/ha, scale 0 to 100) was 0. For the same compound, the “Plant response rating, Poinsettia, Wild” value ([6]; 31 g ai/ha, scale 0 to 100) was 0, the “Plant response rating, Poinsettia, Wild” value ([6]; 62 g ai/ha, scale 0 to 100) was 0 and the “Plant response rating, Poinsettia, Wild” value ([6]; 125 g ai/ha, scale of 0 to 100) was 0. For the same compound, the “Plant response rating, Galium” value ([7]; 16 g ai/ha, scale 0 to 100) was 0, the “Plant response rating, Galium” value ([7]; 31 g ai/ha, scale 0 to 100) was 0 and the “Plant response rating, Galium” value ([7]; 62 g ai/ha, scale of 0 to 100) was 10. For the same compound, the “Plant response rating, Galium” value ([7]; 125 g ai/ha, scale of 0 to 100) was 15.
